Test system: Bacillus subtilis spores
Experiment: Sporicidal activity against Bacillus subtilis spore suspension (cfu pour-plate count vs distilled water controls)
Assay type: cell-based
Settings: spore suspension diluted 1:100 into composition
Protocol: Spore suspensions were prepared by streaking standard agar plates with Bacillus subtilis and then incubating the plates for 48-72 hours at 37° C. The resulting bacteria and their spores were scraped from the plates and suspended by agitation in a 50% ethanol-water solution for four hours in order to lyse the vegetative cells. The spores were collected by centrifugation, washed three times and then suspended in 50% ethanol-water, resulting in a spore titer of 10^9 spores/mL. […] After treatment, the spore suspensions were diluted in distilled water and duplicate aliquots from each dilution were pour-plated on tripticase soy agar. Total colony-forming units (cfu) were counted after incubation at 37° C. for 24 hours. Sporicidal activity was directly proportional to the reduction of cfu compared to the distilled water controls.
Test results from representative compositions are summarized in Table 1 and the associated graph of the data (FIG. 2). In addition, test data for exposure to 0.1% L-alanine in the absence of sporicidal agents is included.

In the case of C[C@H](N)C(=O)O [L-alanine], the “Test results of Spore-inactivating Compositions vs. Exposure Time (cfu compared to distilled water controls)” value (exposure time 0.00 hrs) is reported as 100.0%, the “Test results of Spore-inactivating Compositions vs. Exposure Time (cfu compared to distilled water controls)” value (exposure time 0.25 hrs) is reported as 106.0% and the “Test results of Spore-inactivating Compositions vs. Exposure Time (cfu compared to distilled water controls)” value (exposure time 0.50 hrs) is reported as 111.0%. For the same compound, the “Test results of Spore-inactivating Compositions vs. Exposure Time (cfu compared to distilled water controls)” value (exposure time 1.00 hrs) was 113.0% and the “Test results of Spore-inactivating Compositions vs. Exposure Time (cfu compared to distilled water controls)” value (exposure time 4.00 hrs) was 116.0%.

— patent publication US20090324737A1, “Antimicrobial And Sporicidal Composition” (priority 2002, published 2009)
